From the supplement of paper PMC11616607

Key:
Assay in all cases: drug sensitivity score (DSS) from 5-point dose-response viability curve (DSS (area-under-curve based score)); higher = more sensitive (stronger growth inhibition or killing); extreme values may be limits of the assay
Settings in all cases: exposure time: 72 h; concentration range: 5 concentrations over 10,000-fold range
Ovsaho = system: Ovsaho
Outline: (§1)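 Viability of ovarian cancer and normal ovarian cell lines was read by CellTiter-Glo luminescence after 3 days at 37°C and 5% CO2 in 384-well plates holding 1,500 cells per well. Drugs had been dispensed in DMSO or water with an Echo 550 at five concentrations over a 10,000-fold range. Using Breeze software, a drug sensitivity score was assigned per cell line and drug, higher scores meaning more sensitive, and zero means no response.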

Kuramochi = system: Kuramochi
Outline: as §1

OV90 = system: OV90
Outline: as §1

JHOS2 = system: JHOS2
Outline: as §1

HOSE2C = system: HOSE2C
Outline: as §1

COV318 = system: COV318
Outline: as §1

OVCAR5 = system: OVCAR5
Outline: as §1

OVCAR4 = system: OVCAR4
Outline: as §1

COV362 = system: COV362
Outline: as §1

CAOV3 = system: CAOV3
Outline: as §1

HOSE1C = system: HOSE1C
Outline: as §1

OVCAR8 = system: OVCAR8
Outline: as §1

| SMILES | drug sensitivity score (Ovsaho) | drug sensitivity score (Kuramochi) | drug sensitivity score (OV90) | drug sensitivity score (JHOS2) | drug sensitivity score (HOSE2C) | drug sensitivity score (COV318) | drug sensitivity score (OVCAR5) | drug sensitivity score (OVCAR4) | drug sensitivity score (COV362) | drug sensitivity score (CAOV3) | drug sensitivity score (HOSE1C) | drug sensitivity score (OVCAR8) |
| --- | --- | --- | --- | --- | --- | --- | --- | --- | --- | --- | --- | --- |
| C=CC(=O)Nc1cccc(Nc2nc(Nc3ccc(N4CCN(C(C)=O)CC4)cc3OC)ncc2C(F)(F)F)c1 [Rociletinib] | 6.9 | 3.6 | 5.5 | 2.9 | 6.8 | 2.6 | 7.5 | 3 | 3.3 | 7.9 | 4.2 | 5.8 |
| Nc1nc2[nH]cc(CCc3ccc(C(=O)N[C@@H](CCC(=O)O)C(=O)O)cc3)c2c(=O)[nH]1 [Pemetrexed] | 6.1 | 5.8 | 3.7 | 0 | 20.4 | 0 | 7.6 | 4.2 | 12.7 | 14.1 | 22.9 | 18.2 |
| C1=N/C2=N/c3ccc(OCCN4CCCC4)c(c3)COC/C=C/COCc3cccc(c3)C(=C1)N2 [Pacritinib] | 8 | 6.5 | 10.5 | 7.5 | 8.2 | 5.3 | 9.4 | 6.8 | 6.2 | 7.6 | 8.2 | 7.8 |
| COC[C@H](NC(=O)c1cnc(C)s1)C(=O)N[C@@H](COC)C(=O)N[C@@H](Cc1ccccc1)C(=O)[C@@]1(C)CO1 [Oprozomib] | 16.1 | 9.6 | 21.4 | 23.9 | 17.1 | 24.5 | 15.4 | 15.2 | 15.1 | 21.7 | 18.8 | 12.6 |
| CON(C)C(=O)N1N=C(c2cc(F)ccc2F)S[C@@]1(CCCN)c1ccccc1 [Filanesib] | 8.8 | 9.5 | 10.8 | 7.4 | 16.2 | 8.7 | 17.6 | 6.8 | 1.4 | 21.3 | 21.8 | 17.7 |
| CN(C)C(=N)NC(=N)N [Metformin] | 0 | 0 | 0 | 0 | 0 | 0 | 0 | 0 | 0 | 0 | 0 | 0 |
| COc1cc2c(cc1-c1c(C)noc1C)ncc1[nH]c(=O)n([C@H](C)c3ccccn3)c12 [I-BET151] | 12 | 9.2 | 8.2 | 4.5 | 11.3 | 1.9 | 7.1 | 6.9 | 0.6 | 11.9 | 13.8 | 9.5 |
| CO[C@H]1C[C@@H]2CC[C@@H](C)[C@@](O)(O2)C(=O)C(=O)N2CCCC[C@H]2C(=O)O[C@H]([C@H](C)C[C@@H]2CC[C@@H](OP(C)(C)=O)[C@H](OC)C2)CC(=O)[C@H](C)/C=C(\C)[C@@H](O)[C@@H](OC)C(=O)[C@H](C)C[C@H](C)/C=C/C=C/C=C/1C [Ridaforolimus] | 4.6 | 3.2 | 10.3 | 4.3 | 1 | 0.6 | 4.6 | 2.6 | 0 | 8.7 | 2.3 | 6.8 |
| COCCOc1cnc2ccn([C@H](C)c3nnc4c(F)cc(-c5cnn(C)c5)cn34)c(=O)c2c1 [AMG-337] | 0 | 0 | 0 | 0 | 0 | 0 | 0 | 0 | 0 | 0 | 0 | 0 |
| COc1cc2ncnc(Nc3ccc(F)c(Cl)c3)c2cc1NC(=O)/C=C/CN1CCCCC1 [Dacomitinib] | 2.6 | 2.4 | 0.1 | 0.8 | 0 | 0.2 | 5 | 1.3 | 0.2 | 8 | 1.1 | 2.1 |
| C=CC(=O)Nc1cccc(Nc2nc(Nc3ccc(OCCOC)cc3)ncc2F)c1 [Spebrutinib] | 2.2 | 1.6 | 1.3 | 1.9 | 0.4 | 2 | 1.2 | 2 | 0.9 | 0.3 | 0 | 0 |
| C=C1C[C@@H]2[C@H](CC[C@]3(C)C(=O)CC[C@@H]23)[C@@]2(C)C=CC(=O)C=C12 [Exemestane] | 0 | 0 | 0.4 | 0 | 0 | 0 | 0 | 0 | 0 | 0 | 0 | 0 |
| C=C1C[C@@H]2CC[C@@]34C[C@H]5O[C@H]6[C@@H](O3)[C@H]3O[C@H](CC[C@@H]3O[C@H]6[C@H]5O4)CC(=O)C[C@@H]3[C@@H](OC)[C@@H](C[C@H](O)CN)O[C@H]3C[C@H]3O[C@@H](CC[C@@H]1O2)C[C@@H](C)C3=C [Eribulin] | 12 | 12.9 | 20.3 | 9.1 | 24.3 | 4.2 | 20.5 | 6.3 | 7.9 | 25.8 | 25.8 | 24 |
| CC/C(=C(\c1ccccc1)c1ccc(OCCN(C)C)cc1)c1ccccc1 [Tamoxifen] | 2.9 | 2.2 | 3.7 | 1 | 1.3 | 0.6 | 3.9 | 0.2 | 0.8 | 0.6 | 7.9 | 0.8 |
| C[C@H]1O[C@@H](O[C@H]2[C@@H](O)C[C@H](O[C@H]3[C@@H](O)C[C@H](O[C@H]4CC[C@@]5(C)[C@H](CC[C@@H]6[C@@H]5C[C@@H](O)[C@]5(C)[C@@H](C7=CC(=O)OC7)CC[C@]65O)C4)O[C@@H]3C)O[C@@H]2C)C[C@H](O)[C@@H]1O [Digoxin] | 7.1 | 8.5 | 7.2 | 10.9 | 9.5 | 11.9 | 7.5 | 9.6 | 10.8 | 6.2 | 11.1 | 11.2 |
| O=C(c1cccc(Cl)c1F)N1CCN(Cc2cccc(Nc3nccs3)n2)CC1 [MK-8745] | 0.2 | 0.4 | 0.5 | 0 | 3.5 | 0 | 7.8 | 1.1 | 0 | 4.9 | 2.1 | 8 |
| CNC(=O)c1cccc(-c2ccc3c(N4CCOC[C@@H]4C)nc(N4CCOC[C@@H]4C)nc3n2)c1 [Vistusertib] | 15.4 | 11.5 | 15.1 | 7.7 | 10.3 | 10 | 13.3 | 11.5 | 2.8 | 10.2 | 14.5 | 10.2 |
| O=C(Nc1cc(Cl)cc2c1[nH]c1cnccc12)c1cccnc1 [PS-1145] | 0 | 0.6 | 1 | 0 | 0 | 0 | 1.6 | 0.3 | 0 | 0 | 0 | 0 |
| O=C(Nc1ccc(OC(F)(F)Cl)cc1)c1cnc(N2CC[C@@H](O)C2)c(-c2cc[nH]n2)c1 [Asciminib] | 0 | 0.2 | 0 | 0 | 0 | 0 | 0.4 | 0.3 | 0 | 0 | 0 | 0 |
| CN1CCN(C2CCC(n3cc(-c4ccc(Oc5ccccc5)cc4)c4c(N)ncnc43)CC2)CC1 (configuration not stated) | 15.6 | 12.6 | 10.3 | 7.1 | 9.3 | 6.9 | 15.1 | 7.6 | 11.5 | 11.4 | 7.8 | 9.4 |
| Nc1ccccc1NC(=O)c1ccc(CNC(=O)OCc2cccnc2)cc1 [Entinostat] | 2.4 | 3.2 | 7.4 | 4.7 | 11.8 | 4.3 | 9.9 | 4.3 | 0 | 5.5 | 17.3 | 9.3 |
| CCN(CC)Cc1ccc2cc(COC(=O)Nc3ccc(C(=O)NO)cc3)ccc2c1 [Givinostat] | 3.2 | 6.2 | 7.7 | 5.3 | 8.6 | 4.2 | 10.8 | 4.1 | 2.2 | 7.3 | 12.3 | 10 |
| C#Cc1cccc(Nc2ncnc3cc(OCCOC)c(OCCOC)cc23)c1 [Erlotinib] | 4.8 | 1.6 | 1.5 | 3 | 0.3 | 0.8 | 4.4 | 2 | 0.1 | 7.5 | 0 | 2.5 |
| Cn1ncnc1[C@H]1c2n[nH]c(=O)c3cc(F)cc(c23)N[C@@H]1c1ccc(F)cc1 [Talazoparib] | 4 | 4.3 | 5.1 | 3 | 8.7 | 3.1 | 3.2 | 1.9 | 0 | 4.1 | 10.1 | 5.7 |
| Nc1nc2[nH]cnc2c(=S)[nH]1 [Thioguanine] | 8 | 7.2 | 6.3 | 2.3 | 2.4 | 0.7 | 13.4 | 9.9 | 9.4 | 11.9 | 3.4 | 12.7 |
| COc1ccc(COc2cc3oc(=O)c4cc(C(C)O)ccc4c3cc2OC)cc1 (configuration not stated) [Palomid-529] | 0.1 | 0.1 | 0.8 | 0 | 0 | 1.2 | 0 | 0.6 | 0 | 0 | 0 | 0 |
